One assay has as its target D-2 dopamine receptor (Homo sapiens, UniProt P14416). The assay is described as follows: biochemical. In kind it is binding. Particulars: 0.5 nM 3H-spiperone.
For another assay, the system named is APO-induced climbing. The assay is described as follows: Inhibition of apomorphine (APO) induced climbing. It counts as in vivo, CD-1 (Charles River) male mice. To be noted: for ED50: Mus musculus, po, mice, 1 mg/kg s.c. apomorphine 60 min after pretreatment. Here is the method:
CD-1 (Charles River) male mice weighing 22 to 24 g were pretreated with 1% Tween 80 solution of the compound to be tested. […] Six animals were used in each group. At 60 minutes after pretreatment, the animals were treated subcutaneously with 1 mg/kg of apomorphine (APO). From the 10th to 25th minute following APO treatment the animals were scored in each minute as follows: 0: all the four legs of the animal are on the ground; 1: the animal climbs on the grid by its both forelegs; 2: the animal climbs on the grid by all its four legs. The inhibitory effect was related to the APO control group, which could achieve 32 scores as a maximum.

In a further assay the test system is APO-induced sniffing. In words: Inhibition of APO-induced sniffing stereotypy. It counts as in vivo, CD-1 (Charles River) male mice. To be noted: for ED50: Mus musculus, po, mice, 1 mg/kg s.c. apomorphine 60 min after pretreatment; for Sniff./Climb. ratio: ratio of ED50 sniffing to ED50 climbing, p.o.
In another assay the target is α-1 receptor. In words: Alpha-1 receptor binding (3H-prazosin). The protocol: The non-specific binding was measured with 10 μM (±)-phentolamine.
Assay [1] addresses T1, 5-HT1A subtype of serotonin receptor (Rattus norvegicus, UniProt P19327).
T1 sequence (P19327 1-422): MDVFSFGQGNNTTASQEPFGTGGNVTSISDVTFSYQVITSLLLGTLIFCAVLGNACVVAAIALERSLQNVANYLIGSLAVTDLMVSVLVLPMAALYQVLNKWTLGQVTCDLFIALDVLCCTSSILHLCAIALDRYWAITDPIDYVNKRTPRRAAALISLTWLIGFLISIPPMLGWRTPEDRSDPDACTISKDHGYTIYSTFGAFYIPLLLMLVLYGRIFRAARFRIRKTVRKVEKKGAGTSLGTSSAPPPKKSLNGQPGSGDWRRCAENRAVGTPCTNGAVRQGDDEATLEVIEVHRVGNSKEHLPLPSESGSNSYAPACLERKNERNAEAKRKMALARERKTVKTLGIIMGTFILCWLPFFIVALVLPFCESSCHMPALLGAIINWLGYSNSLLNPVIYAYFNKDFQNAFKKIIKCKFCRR
The assay is described as follows: biochemical. It counts as binding. Particulars: for IC50: 0.5 nM 3H-8-OH-DPAT; for D-2/5-HT1A ratio: ratio of receptor IC50 values.
Experimental: Determination of the 5-HT1A subtype of serotonin receptor was carried out by a modification [M. D. Hall et al.: J. Neurochem. […] 0.5 nM ^3 H-8-OH-DPAT was used as ligand, where non-specific binding was determined by using 10 μM serotonin.

Where a name gives a salt, the structure may show the parent alone.

Chain of D-2 dopamine receptor (P14416 whole entry): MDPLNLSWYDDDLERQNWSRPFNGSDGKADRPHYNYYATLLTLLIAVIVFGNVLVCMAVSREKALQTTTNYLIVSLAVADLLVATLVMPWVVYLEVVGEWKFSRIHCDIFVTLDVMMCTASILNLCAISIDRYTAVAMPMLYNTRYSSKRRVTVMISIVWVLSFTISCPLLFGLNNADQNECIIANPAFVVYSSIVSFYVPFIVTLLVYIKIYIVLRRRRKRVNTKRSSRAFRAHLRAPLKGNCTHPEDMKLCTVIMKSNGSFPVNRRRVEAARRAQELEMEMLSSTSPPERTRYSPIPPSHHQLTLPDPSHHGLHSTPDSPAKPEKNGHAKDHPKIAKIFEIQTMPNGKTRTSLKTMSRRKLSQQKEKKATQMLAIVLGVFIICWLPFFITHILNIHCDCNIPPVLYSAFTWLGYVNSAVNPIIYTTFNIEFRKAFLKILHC

As usually defined, the IC50 is the concentration that inhibits the measured activity by half. In general, ED50 refers to the dose that gives a 50% effect, or the effect in half of the subjects. For `COc1ccccc1N1CCN(CCCOc2ccc(-c3cn4ccccc4n3)cc2)CC1` [Compound 4510067, 1-(2-Methoxyphenyl)-4-{3-[4-(2-imidazo[1,2-a]pyridinyl)phenoxy]propyl}piperazine], the half-inhibitory concentration (IC50) on D-2 dopamine receptor turned out to be 17 nM; on α-1 receptor it was 57 nM; in assay [1], 202 nM. Besides, the results for the ED50 with APO-induced climbing and in the assay on APO-induced sniffing were 7.2 mg/kg and 16.2 mg/kg, respectively. Moreover, in the assay with APO-induced sniffing, the Sniff./Climb. ratio came out at 2.3.

On to `COc1ccccc1N1CCN(CCOc2ccc(-c3cc4ccccn4c3)cc2)CC1.Cl.Cl` [Compound 4510407, 1-(2-Methoxyphenyl)-4-{2-[4-(2-indolizinyl)phenoxy]ethyl}piperazine dihydrochloride], for which the IC50 turned out to be 258 nM against D-2 dopamine receptor, 542 nM on α-1 receptor and 802 nM in assay [1]. Moreover, in the assay on APO-induced climbing, the ED50 was above 30 mg/kg.

With `COc1ccccc1N1CCN(CCOc2ccc(-c3cn4ccccc4n3)cc2)CC1` [Compound 4510408, 1-(2-Methoxyphenyl)-4-{2-[4-(2-imidazo[1,2-a]pyridinyl)phenoxy]ethyl}piperazine], the results for the IC50 (at D-2 dopamine receptor; at α-1 receptor; in assay [1]) were 56 nM, 36 nM and 70 nM, respectively. In addition, the median effective dose (ED50) in the assay with APO-induced climbing is 2.4 mg/kg; in the assay with APO-induced sniffing, around 10 mg/kg. Further, the “ED50 values (climbing) compared with clozapine, in words” value in the assay on APO-induced climbing (oral, relative to clozapine) was “lower than or equal to that of clozapine”. Besides, in the assay on APO-induced sniffing, the Sniff./Climb. ratio is recorded as 4.1.

Take `COc1ccccc1N1CCN(CCOc2ccc(-c3cn4cccnc4n3)cc2)CC1` [Compound 4510411, 1-(2-Methoxyphenyl)-4-{2-[4-(2-imidazo[1,2-a]pyrimidinyl)phenoxy]ethyl}piperazine]: the IC50 came to 133 nM at D-2 dopamine receptor, 63 nM at α-1 receptor and 10 nM in assay [1]. Also, the values for the 50% effective dose (ED50) with APO-induced climbing and in the assay with APO-induced sniffing were 3.4 mg/kg and above 30 mg/kg, respectively. Besides, the “ED50 values (climbing) compared with clozapine, in words” value with APO-induced climbing (oral, relative to clozapine) is “lower than or equal to that of clozapine”. Further, the Sniff./Climb. ratio in the assay on APO-induced sniffing is recorded as above 8.8.

For the molecule `COc1ccccc1N1CCN(CCCOc2ccc(-c3cc4ccccn4c3)cc2)CC1.Cl.Cl` [Compound 4510423, 1-(2-Methoxyphenyl)-4-{3-[4-[2-indolizinyl)phenoxy]propyl}piperazine dihydrochloride], the IC50 on D-2 dopamine receptor came out at 77 nM; on α-1 receptor, 359 nM; in assay [1] it was 1000 nM. Further, the median effective dose (ED50) in the assay with APO-induced climbing was 4.1 mg/kg; in the assay with APO-induced sniffing, above 10 mg/kg. In addition, the Sniff./Climb. ratio in the assay with APO-induced sniffing was above 2.4.

With `COc1ccccc1N1CCN(CCCOc2ccc(-c3cn4cccnc4n3)cc2)CC1` [Compound 4510424, 1-(2-Methoxyphenyl)-4-{3-[4-(2-imidazo[1,2-a]pyrimidinyl)phenoxy]propyl}piperazine], the IC50 was 34 nM at D-2 dopamine receptor, 30 nM at α-1 receptor and 66 nM in assay [1]. Moreover, the ED50 with APO-induced climbing was 8.9 mg/kg; with APO-induced sniffing it was above 30 mg/kg. The Sniff./Climb. ratio with APO-induced sniffing is 3.4.

On to `COc1ccccc1N1CCN(CCOc2ccc(-c3cn4ccsc4n3)cc2)CC1.Cl.Cl.Cl` [Compound 4510470, 1-(2-Methoxyphenyl)-4-{2-[4-[6-imidazo[2,1-b]thiazolyl]phenoxy]ethyl}piperazine trihydrochloride], for which the values for the IC50 (at D-2 dopamine receptor; on α-1 receptor; in assay [1]) were 73 nM, 101 nM and 38 nM, respectively. Moreover, the median effective dose (ED50) in the assay with APO-induced climbing was 0.8 mg/kg; in the assay on APO-induced sniffing, 4.5 mg/kg. Besides, the “oral activity as compared to clozapine” value in the assay with APO-induced climbing (oral, relative to clozapine) is given as “ten-fold”. The Sniff./Climb. ratio in the assay on APO-induced sniffing came out at 5.6. The D-2/5-HT1A ratio in assay [1] stood at 1.9.

As for `COc1ccccc1N1CCN(CCOc2ccc(-c3cn4c(n3)SCC4)cc2)CC1` [Compound 4510471, 1-(2-Methoxyphenyl)-4-{2-[4-[6-(2,3-dihydroimidazo[2,1-b]thiazol)-yl]phenoxy]ethyl}piperazine trihydrochloride], the figures for the half-maximal inhibitory concentration (IC50) (at D-2 dopamine receptor; at α-1 receptor; in assay [1]) were 117 nM, 75 nM and 29 nM, respectively. In addition, the ED50 in the assay with APO-induced climbing is 6.3 mg/kg; with APO-induced sniffing, above 30 mg/kg. In addition, the Sniff./Climb. ratio in the assay on APO-induced sniffing worked out at 4.8.

Consider `COc1ccccc1N1CCN(CCCOc2ccc(-c3cn4ccsc4n3)cc2)CC1` [Compound 4510472, 1-(2-Methoxyphenyl)-4-{3-[4-[6-imidazo[2,1-b]thiazolyl)phenoxy]propyl}piperazine], for which the IC50 against D-2 dopamine receptor turned out to be 23 nM; on α-1 receptor it was 56 nM; in assay [1] it was 96 nM. Moreover, the ED50 in the assay on APO-induced climbing was 3.4 mg/kg; in the assay on APO-induced sniffing, around 10 mg/kg. For the same molecule, the “ED50 values (climbing) compared with clozapine, in words” value with APO-induced climbing (oral, relative to clozapine) is given as “lower than or equal to that of clozapine”. Moreover, the Sniff./Climb. ratio in the assay with APO-induced sniffing amounted to 2.9.

`COc1ccccc1N1CCN(CCCOc2ccc(-c3cn4c(n3)SCC4)cc2)CC1` [Compound 4510473, 1-(2-Methoxyphenyl)-4-{3-[4-[6-(2,3-dihydroimidazo[2,1-b]thiazol)yl]phenoxy]jpropyl}piperazine]: the 50% inhibitory concentration (IC50) against D-2 dopamine receptor worked out at 29 nM; at α-1 receptor it was 48 nM; in assay [1] it was 122 nM. Also, the 50% effective dose (ED50) in the assay with APO-induced climbing is 15.3 mg/kg; in the assay with APO-induced sniffing, above 30 mg/kg. The Sniff./Climb. ratio in the assay on APO-induced sniffing is listed as above 2.0.

Consider `COc1ccccc1N1CCN(CCCCOc2ccc(-c3cc4ccccn4c3)cc2)CC1` [Compound 4510613, 1-(2-Methoxyphenyl)-4-{4-[4-(2-indolizinyl)phenoxy]butyl}piperazine], for which the results for the IC50 (against D-2 dopamine receptor; at α-1 receptor; in assay [1]) were 99 nM, 842 nM and 243 nM, respectively. Also, the ED50 in the assay on APO-induced climbing is 14.8 mg/kg; in the assay on APO-induced sniffing, above 30 mg/kg. For the same molecule, the Sniff./Climb. ratio in the assay on APO-induced sniffing is reported as above 2.0.

In the case of `COc1ccccc1N1CCN(CCCCOc2ccc(-c3cn4cccnc4n3)cc2)CC1` [Compound 4510645, 1-(2-Methoxyphenyl)-4-{4-[4-(2-imidazo[1,2-a]pyrimidinyl)phenoxy]butyl}piperazine], the figures for the IC50 (at D-2 dopamine receptor; at α-1 receptor; in assay [1]) were 55 nM, 22 nM and 12 nM, respectively. The values for the ED50 in the assay with APO-induced climbing and with APO-induced sniffing were 20.5 mg/kg and above 30 mg/kg, respectively. In addition, the Sniff./Climb. ratio in the assay with APO-induced sniffing is above 1.5.

Turning to `COc1ccccc1N1CCN(CCCCOc2ccc(-c3cn4ccccc4n3)cc2)CC1` [Compound 4510915, 1-(2-Methoxyphenyl)-4-{4-[4-(2-imidazo[1,2-a]pyridinyl)phenoxy]butyl}piperazine], the IC50 against D-2 dopamine receptor was determined as 69 nM; on α-1 receptor, 34 nM; in assay [1] it was 21 nM. For the same molecule, the ED50 with APO-induced climbing was 10.7 mg/kg.

Turning to `COc1ccccc1N1CCN(CCCCOc2ccc(-c3cn4ccsc4n3)cc2)CC1.Cl.Cl.Cl` [Compound 4510916, 1-(2-Methoxyphenyl)4-{4-[4-[6-imidazo[2,1-b]thiazolyl]phenoxy]butyl}piperazine trihydrochloride], the figures for the concentration for half-maximal inhibition (IC50) (at D-2 dopamine receptor; on α-1 receptor; in assay [1]) were 55 nM, 28 nM and 8 nM, respectively. Also, the ED50 is 6.1 mg/kg in the assay with APO-induced climbing and around 30 mg/kg in the assay with APO-induced sniffing. For the same molecule, in the assay on APO-induced sniffing, the Sniff./Climb. ratio is above 4.9. In addition, in assay [1], the “activity on 5-HT1A receptor subtypes, in words” value is “especially strong activity”. Besides, the D-2/5-HT1A ratio in assay [1] was determined as 6.9.

As to `COc1ccccc1N1CCN(CCCCOc2ccc(-c3cn4c(n3)SCC4)cc2)CC1` [Compound 4510991, 1-(2-Methoxyphenyl)-4-{4-[4-[6-(2,3-dihydroimidazo[2,1-b]thiazol)-yl]phenoxy]butyl}piperazine], the half-maximal inhibitory concentration (IC50) against D-2 dopamine receptor was 56 nM; at α-1 receptor it was 16 nM; in assay [1], 9 nM. The 50% effective dose (ED50) in the assay on APO-induced climbing was around 30 mg/kg; in the assay with APO-induced sniffing it was above 30 mg/kg. Also, the Sniff./Climb. ratio with APO-induced sniffing was above 1.0. The “activity on 5-HT1A receptor subtypes, in words” value in assay [1] is reported as “especially strong activity”.

The values above are taken from patent publication US6103724A, “2-methoxyphenylpiperazine derivatives” (Richter Gedeon Vegyeszeti Gyar Rt., priority 1996, dated 2000).
